Measured values from PubChem BioAssay AID1963963 (Molecular Pharmacology Branch, DTP, NCI, 2024).

Test system: 958667-338-R-J2-PDC tumor spheroids viability
Assay: Anticancer human tumor 958667-338-R-J2-PDC patient-derived colon adenocarcinoma cell line growth inhibition [PI3K]
Conditions: spheroids with HUVEC and MSC; for IC50: curve of first compound; for viability, T/C: stronger effect = lower value
Procedure, shortened: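 Spheroid viability read-out. Co-cultures contained the tumor line plus HUVEC and human MSCs. Each agent was paired with a PI3K inhibitor (inavolisib, alpelisib, duvelisib, copanlisib) across half-log dilutions starting at clinical Cmax, or at 10 microM when Cmax was unknown.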

[1] = second compound 0.0316 µM, first compound 0.0316 µM
[2] = second compound 0.0316 µM, first compound 0.1 µM
[3] = second compound 0.0316 µM, first compound 0.316 µM
[4] = second compound 0.0316 µM, first compound 1 µM
[5] = second compound 0.0316 µM, first compound 3.16 µM
[6] = second compound 0.0316 µM, first compound 10 µM
[7] = second compound 0.1 µM, first compound 0.0316 µM
[8] = second compound 0.1 µM, first compound 0.1 µM
[9] = second compound 0.1 µM, first compound 0.316 µM
[10] = second compound 0.1 µM, first compound 1 µM
[11] = second compound 0.1 µM, first compound 3.16 µM
[12] = second compound 0.1 µM, first compound 10 µM
[13] = second compound 0.316 µM, first compound 0.0316 µM
[14] = second compound 0.316 µM, first compound 0.1 µM
[15] = second compound 0.316 µM, first compound 0.316 µM
[16] = second compound 0.316 µM, first compound 1 µM
[17] = second compound 0.316 µM, first compound 3.16 µM
[18] = second compound 0.316 µM, first compound 10 µM
[19] = second compound 1 µM, first compound 0.0316 µM
[20] = second compound 1 µM, first compound 0.1 µM
[21] = second compound 1 µM, first compound 0.316 µM
[22] = second compound 1 µM, first compound 1 µM
[23] = second compound 1 µM, first compound 3.16 µM
[24] = second compound 1 µM, first compound 10 µM
[25] = second compound 3.16 µM, first compound 0.0316 µM
[26] = second compound 3.16 µM, first compound 0.1 µM
[27] = second compound 3.16 µM, first compound 0.316 µM
[28] = second compound 3.16 µM, first compound 1 µM
[29] = second compound 3.16 µM, first compound 3.16 µM
[30] = second compound 3.16 µM, first compound 10 µM
[31] = second compound 10 µM, first compound 0.0316 µM
[32] = second compound 10 µM, first compound 0.1 µM
[33] = second compound 10 µM, first compound 0.316 µM
[34] = second compound 10 µM, first compound 1 µM
[35] = second compound 10 µM, first compound 3.16 µM
[36] = second compound 10 µM, first compound 10 µM
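Note: spheroids exposed to compounds for seven days before readout.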

## CC(Cn1ccc(-c2ccc(C#N)c(Cl)c2)n1)NC(=O)c1cc(C(C)O)[nH]n1 (stereo unspecified) + CC(Nc1ncnc2nc[nH]c12)c1cc2cccc(Cl)c2c(=O)n1-c1ccccc1
Second compound 0.0316 µM
  IC50: > 10 µM
Second compound 0.1 µM
  IC50: > 10 µM
Second compound 0.316 µM
  IC50: > 10 µM
Second compound 1 µM
  IC50: > 10 µM
Second compound 3.16 µM
  IC50: > 10 µM
Second compound 10 µM
  IC50: > 10 µM
[1]
  viability, T/C: 85.4%
[2]
  viability, T/C: 105%
[3]
  viability, T/C: 85.5%
[4]
  viability, T/C: 106%
[5]
  viability, T/C: 114%
[6]
  viability, T/C: 86.5%
[7]
  viability, T/C: 100%
[8]
  viability, T/C: 97.5%
[9]
  viability, T/C: 99.9%
[10]
  viability, T/C: 99.2%
[11]
  viability, T/C: 99.4%
[12]
  viability, T/C: 79.1%
[13]
  viability, T/C: 90.7%
[14]
  viability, T/C: 109%
[15]
  viability, T/C: 121%
[16]
  viability, T/C: 108%
[17]
  viability, T/C: 85.8%
[18]
  viability, T/C: 109%
[19]
  viability, T/C: 119%
[20]
  viability, T/C: 115%
[21]
  viability, T/C: 99.8%
[22]
  viability, T/C: 112%
[23]
  viability, T/C: 101%
[24]
  viability, T/C: 73.7%
[25]
  viability, T/C: 107%
[26]
  viability, T/C: 105%
[27]
  viability, T/C: 121%
[28]
  viability, T/C: 82.8%
[29]
  viability, T/C: 101%
[30]
  viability, T/C: 98.5%
[31]
  viability, T/C: 77.2%
[32]
  viability, T/C: 98.7%
[33]
  viability, T/C: 86.7%
[34]
  viability, T/C: 84.1%
[35]
  viability, T/C: 91.9%
[36]
  viability, T/C: 97.7%

## CC1(C)CCC(Nc2ncc(C(F)(F)F)c(-c3c[nH]c4c(P(C)(C)=O)c(C#N)ccc34)n2)CN1 (stereo unspecified) + CC(Nc1ncnc2nc[nH]c12)c1cc2cccc(Cl)c2c(=O)n1-c1ccccc1
Second compound 0.0316 µM
  IC50: 4.48 µM
Second compound 0.1 µM
  IC50: 2.34 µM
Second compound 0.316 µM
  IC50: 4.17 µM
Second compound 1 µM
  IC50: 3.12 µM
Second compound 3.16 µM
  IC50: 3.03 µM
Second compound 10 µM
  IC50: 3 µM
[1]
  viability, T/C: 101%
[2]
  viability, T/C: 94.6%
[3]
  viability, T/C: 82.8%
[4]
  viability, T/C: 69%
[5]
  viability, T/C: 70.1%
[6]
  viability, T/C: 25.9%
[7]
  viability, T/C: 113%
[8]
  viability, T/C: 72.1%
[9]
  viability, T/C: 72%
[10]
  viability, T/C: 62.5%
[11]
  viability, T/C: 64.9%
[12]
  viability, T/C: 20%
[13]
  viability, T/C: 98%
[14]
  viability, T/C: 106%
[15]
  viability, T/C: 80.4%
[16]
  viability, T/C: 74%
[17]
  viability, T/C: 63.9%
[18]
  viability, T/C: 24.6%
[19]
  viability, T/C: 82.4%
[20]
  viability, T/C: 103%
[21]
  viability, T/C: 90.6%
[22]
  viability, T/C: 65.4%
[23]
  viability, T/C: 54.5%
[24]
  viability, T/C: 30.8%
[25]
  viability, T/C: 117%
[26]
  viability, T/C: 96.1%
[27]
  viability, T/C: 86%
[28]
  viability, T/C: 64.1%
[29]
  viability, T/C: 60.8%
[30]
  viability, T/C: 21.8%
[31]
  viability, T/C: 84.6%
[32]
  viability, T/C: 69.1%
[33]
  viability, T/C: 84.2%
[34]
  viability, T/C: 66.3%
[35]
  viability, T/C: 49.6%
[36]
  viability, T/C: 14.2%

## Cn1nccc1Nc1nccc(-c2ccn(C(CO)c3ccc(Cl)c(F)c3)c(=O)c2)n1 (stereo unspecified) + CC(Nc1ncnc2nc[nH]c12)c1cc2cccc(Cl)c2c(=O)n1-c1ccccc1
Second compound 0.0316 µM
  IC50: > 10 µM
Second compound 0.1 µM
  IC50: > 10 µM
Second compound 0.316 µM
  IC50: > 10 µM
Second compound 1 µM
  IC50: > 10 µM
Second compound 3.16 µM
  IC50: > 10 µM
Second compound 10 µM
  IC50: 8.08 µM
[1]
  viability, T/C: 93.3%
[2]
  viability, T/C: 93.3%
[3]
  viability, T/C: 92.1%
[4]
  viability, T/C: 97.6%
[5]
  viability, T/C: 72.2%
[6]
  viability, T/C: 77.8%
[7]
  viability, T/C: 88%
[8]
  viability, T/C: 106%
[9]
  viability, T/C: 109%
[10]
  viability, T/C: 69.4%
[11]
  viability, T/C: 73.6%
[12]
  viability, T/C: 63.3%
[13]
  viability, T/C: 91.1%
[14]
  viability, T/C: 105%
[15]
  viability, T/C: 80.6%
[16]
  viability, T/C: 106%
[17]
  viability, T/C: 76.3%
[18]
  viability, T/C: 60.1%
[19]
  viability, T/C: 93.9%
[20]
  viability, T/C: 87%
[21]
  viability, T/C: 82.7%
[22]
  viability, T/C: 89.6%
[23]
  viability, T/C: 83.5%
[24]
  viability, T/C: 50.7%
[25]
  viability, T/C: 82.9%
[26]
  viability, T/C: 79.9%
[27]
  viability, T/C: 68.3%
[28]
  viability, T/C: 75.4%
[29]
  viability, T/C: 66.8%
[30]
  viability, T/C: 51.4%
[31]
  viability, T/C: 94%
[32]
  viability, T/C: 94.2%
[33]
  viability, T/C: 67.3%
[34]
  viability, T/C: 87.6%
[35]
  viability, T/C: 66.3%
[36]
  viability, T/C: 44.9%
